Data on 1 compound can be found in PMC9822133, “Design, Synthesis and Antiproliferative Evaluation of Bis-Indole Derivatives with a Phenyl Linker: Focus on Autophagy” (Molecules, 2022).

Assay [1] relates to A549. Description: MTT screening assay, A549. Type of assay: cell-based. The following applies: Homo sapiens, 72 h incubation. The text has this:
(§1) The ability of newly synthesized indole phytoalexins to suppress cell proliferation was screened in vitro on eight cancer cell lines including human colorectal carcinoma (Caco-2 and HCT116), human cervical cancer (HeLa), human breast adenocarcinoma (MCF-7, MDA-MB-231), human alveolar adenocarcinoma (A549) and human leukemic T cell lymphoma (Jurkat), and two non-cancer cell lines (MCF-10A, Cos-7).
(§2) The cell lines used for this study were Caco-2 (human colorectal adenocarcinoma cell line, American Type Culture Collection, Manassas, VA, USA (ATCC)), HCT116 (human colorectal carcinoma cells European Collection of Authenticated Cell Cultures, Salisbury, UK (ECACC)), HeLa (human cervical tumor cells, ECACC), MCF-7 (human breast tumor cells, ECACC), MDA-MB-231 (human breast tumor cells, ATCC), A549 (human lung carcinoma cells, ATCC), BLM (human melanoma lung metastases, a gift from prof. K. Smetana, Institute of Anatomy, Charles University in Prague), Jurkat (human leukemia cell line, ECACC), Cos-7 (immortalized monkey kidney fibroblasts, ATCC) and MCF-10A (human mammary epithelial cells, ATCC). Caco-2, MCF-7, BLM, Cos-7 and A549 cells were cultured in Dulbecco’s Modified Eagle’s Medium (DMEM) with high glucose and sodium pyruvate (GE Healthcare, Piscataway, NJ, USA); HCT116 lines, HeLa, MDA-MB-231 and Jurkat were cultured in RPMI-1640 medium; and MCF10A cells were cultured in high glucose DMEM/F12 (Dulbecco’s Modified Eagle’s Medium F12). The media were enriched with 10% fetal bovine serum (FBS) and a 1% solution of a mixture of antibiotics and antimycotics 1× HyClone™ (GE Healthcare, Chicago, IL, USA). DMEM/F12 medium was supplemented with epidermal growth factor (EGF) (20 ng/mL final), hydrocortisone (0.5 μg/mL final) and insulin (10 μg/mL final) (Sigma-Aldrich Chemie, Steinheim, Germany). The cells were placed in an incubator at 37 °C with humidified air containing 5% CO2.
(§3) The MTT assay is a colorimetric method used to quantify the metabolic activity of cells. MTT (3-(4,5-di-methylthiazol-2-yl)2,5-diphenyltetrazolium bromide) (Sigma-Aldrich Chemie, Steinheim, Germany) is reduced by oxidoreductases in the cytosol of cells to light-absorbing formazan, the presence of which can be measured spectrophotometrically and determines the half-maximal inhibitory concentration (IC50). A549 cells were seeded in […] culture plates at a density of 5 × 10^3 per well. […]
(§4) We also incubated the cells with chloroquine at concentrations of 5–20 µM, which was added 1 h before the addition of the test substance, and cisplatin at concentrations of 3–10 µM. […] After 24 h, the absorbance was measured at a wavelength of 540 nm using an automated Cytation™ 3 Cell Imaging Multi-Mode Reader (Biotek, Winooski, VT, USA). […]

Assay [2] has as its system HCT116. Description: MTT screening assay, HCT116. The class given is cell-based. The following applies: Homo sapiens, HCT-116, 72 h incubation.
Source text: as §1, §2, §3, §4
(In general: Formazan colour is commonly taken as a measure of viable cells.)

Assay [3] concerns A549 human lung cancer cells. Nature of the assay: MTT assay with cis-platin alone or combined with compound 49. The following applies: A549, CisPt 10 μM + compound 49 20 μM. The class given is cell-based.
Source text: Furthermore, the depletion of GSH has been documented to potentiate the effect of anticancer drugs. Glutathione plays an important role in cisPt detoxification, so depletion of GSH is believed to potentiate the cisPt-induced DNA damage and increase the chemosensitivity of cancer cells to this anticancer drug. Due to the GSH-depleting effect of compound 49, we performed a set of experiments with cis-platin (CisPt) alone or in combination with compound 49 (Figure 9). […] Simultaneous treatments with CisPt (10 μM) and 20 μM of compound 49 caused a 59% reduction in cell growth.
The MTT assay is a colorimetric method used to quantify the metabolic activity of cells. MTT (3-(4,5-di-methylthiazol-2-yl)2,5-diphenyltetrazolium bromide) (Sigma-Aldrich Chemie, Steinheim, Germany) is reduced by oxidoreductases in the cytosol of cells to light-absorbing formazan, the presence of which can be measured spectrophotometrically and determines the half-maximal inhibitory concentration (IC50). […]
as §4

For assay [4], the system named is glutathione-S-transferase (GST). Nature of the assay: GST activity in treated A549 cells. The class given is cell-based, human. The following applies: A549, 20 µM. From the text:
Glutathione is an important intracellular molecule involved in carcinogen detoxification. On the other hand, its elevated state in cancer cells is often associated with resistance to chemotherapy. […] Because high levels of GSH are associated with cancer cell resistance, the GHS-depleting effect of compound 49 could be interesting due to new cancer chemosensitizer development. In the case of GST and GR, we hypothesize that an increase in the activity of both enzymes may be a compensatory mechanism induced by GSH depletion.
Both floating and adherent A549 cells were harvested at 24, 48, and 72 h after treatment with compound 49 (20 µM). SOD determination kit, Glutathione Peroxidase Cellular Activity Assay kit, Glutathione Reductase Assay Kit and Glutathione-S-transferase (GST) Assay Kit (all Sigma Aldrich, Germany) were used for the detection of relevant enzyme activity. Reduced glutathione (GSH) content was measured by the method originally described by Floreani et al.. Assays were performed on an M 501 single beam UV/VIS spectrophotometer (Spectronic Camspec Ltd., Leeds, United Kingdom). All measured parameters were calculated per milligram or gram of protein determined using the bicinchoninic acid assay.

The subject of assay [5] is HeLa. Description: MTT screening assay, HeLa. Type of assay: cell-based. The following applies: Homo sapiens, 72 h incubation.
Source text: as §1, §2, §3, §4

In assay [6] the test system is Caco-2. Nature of the assay: MTT screening assay, Caco-2. The following applies: Homo sapiens, 72 h incubation. The class given is cell-based.
Source text: as §1, §2, §3, §4

For assay [7], the system named is A549 cells. Nature of the assay: BrdU cell proliferation assay. The following applies: Homo sapiens; A549, 72 h of incubation, 5-30 μM; read-out: IC50, BrdU incorporation. The class given is cell-based. On the procedure:
Measurement of the BrdU, a thymidine analogue, is a sensitive method used for the detection of DNA synthesis during the S phase of the cell cycle.
A549 tumor cells were plated at a density of 5 × 10^3 cells/well in a volume of 80 µL (96-well plates). After 24 h of incubation in the respective medium, we added the indole phytoalexin 49 in concentrations of 5–30 µM. After 48 h of incubation with the test substance, we added BrdU labeling solution and incubated for another 24 h. Subsequently, the cells were fixed for 30 min with a fixing solution, aspirated and incubated with peroxidase-conjugated anti-BrdU antibody (100 µL, 1:100). After washing with washing buffer 3 times, TMB substrate solution (tetramethylbenzidine, Roche, Basel, Switzerland) was added in a volume of 100 uL to each well. During the reaction, 25 µL of 1M H2SO4 was added as a stop solution, and the amount of BrdU incorporated was detected with an automated Cytation™ 3 Cell Imaging Multi-Mode Reader (Biotek, Winooski, VT, USA) at a wavelength of 450 nm. Three independent analyses were performed.
(In general: Incorporation of labelled thymidine or its analogues reports DNA synthesis.)

Consider `CC(C)(C)OC(=O)n1cc(CNC(=O)Nc2ccc(NC(=O)NCc3cn(C(=O)OC(C)(C)C)c4ccccc34)cc2)c2ccccc21` [Compound 49, N,N′-(1,4-phenylene)bis{N′-[1-(tert-butoxycarbonyl)indol-3-yl]methyl (urea)}], for which the IC50 came to 8.7 ± 0.1 µM in assay [1]; 8.8 ± 0.6 µM in assay [2]; 8.9 ± 0.2 µM in assay [5]; 8.6 ± 0.9 µM in assay [6]; 16.1 µM in assay [7]. Besides, the “reduction in cell growth, combination” value in assay [3] was found to be 59%. Further, the GST came to 3.540 ± 1.07 μkat/mg Prot in assay [4] (24 h), 2.580 ± 0.44 μkat/mg Prot in assay [4] (48 h) and 5.060 ± 0.52 μkat/mg Prot in assay [4] (72 h).
